From PubChem BioAssay AID735 (The Scripps Research Institute Molecular Screening Center, 2007)
Active and inactive are the calls of the source. The rule behind the calls is not given here.

Molecular target: Collagenase 3 (Homo sapiens) (UniProt P45452)
Assay: MMP13 activity inhibition curves – biochemical, dose response (AID 735)
Settings: recombinant MMP13 enzymatic activity assay

Row | IC50 | SMILES
1 | inactive | CCOC(=O)/C(C#N)=C1/C=Nc2ccccc2N1
2 | > 39.8 µM (inactive) | COc1cc(-n2nc(C)c3c2OC(N)=C(C#N)C3c2ccccc2)c(Cl)c(Br)c1O (configuration not stated)
